Legend:
p70S6K (pThr389/412) = assay: MILLIPLEX MAP 9-Plex, p70S6K active form in A431 lysates; assay type: cell-based, human; settings: A431 cell lysates, 10 μM, 1 h, M ± mx; control 39.9 ± 7.2
From the text: We used the MILLIPLEX MAP Multi-Pathway Magnetic Bead 9-Plex-Cell Signaling Multiplex Assay, which allows the simultaneous detection of nine phosphorylated proteins that are markers of the main intracellular signaling pathways (phosphorylation site is indicated in parentheses), a universal transcription factor that controls the expression of immune response genes; apoptosis and cell cycle NFκB (pS536); cAMP-dependent transcription factor (CREB (pS133); mitogen-activated kinase p38 (pT180/pY182); stress-activated protein kinase JNK (pT183/pY185); ribosomal […]; transcription factors STAT3 (pS727) and STAT5A/B (pY694/699); protein kinase B (Akt) (pS473); and kinase regulated by extracellular signals ERK1/2 (pT185/pY187).
The effect of various concentrations of PPA derivatives on the cell culture was studied using xCelligence RTCA equipment (AceaBioscience, San Diego, CA, USA). The concentration closest to the IC50 (10 μM) was chosen as the experimental concentration. The selected concentration of phaeosphaeride A derivatives allows for the assessment of the early effect of compounds on cells and compares their effectiveness. In this experiment, the signaling pathways Akt (pSer473), p70S6K (pThr412), NFkB (p65-pSer536), and CREB (pSer133) were not activated (Table 8). The stress-activated signaling pathways ERK/MAP kinase 1/2 (pThr185/pTyr187), JNK (pThr183/pTyr185), and p38 (pThr180/pTyr182) were activated for these compounds.
We used a MILLIPLEX MAP Multi-Pathway Magnetic Bead 9-Plex-Cell Signaling Multiplex Assay kit (Merck/Millipore), according to the manufacturer’s protocol. A431 cells were cultured in DMEM with 10% FBS in 24-well plates. Compounds were added to the subconfluent cells at a concentration of 10 μM in DMEM medium for 1 h. Each compound was added in 5 experimental repeats. Cell lysates were prepared with lysis buffer (Millipore) with protease inhibitors (Complete, Roche); the protein concentration in the lysates was determined by the Lowry method. In samples equalized in protein concentration, the active forms of kinase cascades were determined using a Bio-Plex 200 fluorescent analyzer (Bio-Rad).

HEK293 = assay: MTT cytotoxicity, human embryonic kidney cells HEK293; assay type: cell-based; settings: 48 h
From the text: (§1) Cell cultures used in the work: adhesive cultures HBL-100 cells (cells of a normal mammary gland epithelium, immortalized by the SV40 virus and acquired tumorigenicity); MCF-7 breast cancer cells; PC-3 prostate adenocarcinoma cells; HCT-116 colorectal cancer cells; non-small cell lung cancer cells A549; human embryonic kidney cells HEK293; suspension cultures (NCI-H929 and RPMI8226 multiple myeloma cells), K562 chronic myeloid leukemia cells; THP-1 acute monocytic leukemia cells; and Jurkat acute T-cell leukemia cells. We also used several primary cultures of soft tissue sarcomas at 3–4passeges, kindly provided by T.I. Fetisov (The Ethics Committee of N.N. Blokhin NMRCO, protocol code 18-28-09095 and date of approval 28 September 2018).
(§2) Cells MCF-7, PC-3, A549, and HCT-116, and primary cultures of STSwere seeded in 96-well plates, 6 × 10^3 cells per well in 90 μL of culture medium. Suspension cultures were seeded at a concentration of 25 × 10^3 cells per well in 135 μL of medium. The test substances were dissolved in DMSO (Applichem, Council Bluffs, IA, USA) until a concentration of 1 × 10^−^2 M was obtained; for the subsequent dilution of the substances, a serum-free culture medium was used. The next day, for adhesive cultures, and on the same day, for suspension cultures, substances were added to the plates in a volume of 10 μL (adhesive cultures) and 15 μL (suspension cultures) per well at various concentrations; each concentration was added in 3–4 repetitions. The cells were cultured in the presence of substances for 48 h. Then, MTT reagent (PanEko, Moscow, Russia) was added to the wells at a concentration of 5 mg/mL in a volume of 20 μL per well. After 1.5–2 h, the medium with the reagent was removed, and the precipitate of the crystals of formazan was dissolved in 60 μL of DMSO. The optical density was determined using a Multiskan FC spectrophotometer (Thermo Scientific, Waltham, MA, USA) at a wavelength of 540 nm.
(§3) Based on the results of the experiments, a schedule was plotted of the dependence of the percentage of surviving cells (from control) on the concentration of the compound, and the sought concentration IC50 was calculated. The experiments were carried out in 3–4 times.

RPMI8226 = assay: MTT cytotoxicity, RPMI8226 multiple myeloma cells; assay type: cell-based; settings: Homo sapiens, RPMI-8226, suspension culture, 48 h
From the text: as §1
(§4) Modifications of cell lines: K562/i-S9 is a clone obtained after transfection of K562 cells with the ABCB1 (MDR1) gene-encoding P-glycoprotein [36]. Cells HBL-100/Dox and K562/i-S9_Dox are cells obtained by long-term selection with increasing concentrations of doxorubicin (Sigma-Aldrich, St. Louis, MO, USA) from HBL-100 and K562/i-S9 cells, respectively. MCF-7, A594 cells, and primary cultures of soft tissue sarcomas were cultured in DMEM medium (PanEko, Russia), PC-3 and HCT-116 cells and all suspension cultures in RPMI1640 medium (PanEko, Russia) supplemented with 10% fetal bovine serum (GE Healthcare LifeSciences, USA), and gentamicin at a concentration of 40 μg/mL at 37 °C and 5% CO2.
as §2, §3

K562/i-S9_Dox = assay: MTT cytotoxicity, resistant K562/i-S9_Dox cells (P-gp overexpression); assay type: cell-based, human; settings: Homo sapiens, K562; resistant version, doxorubicin selected, MTT, 48 h
From the text: At the next stage, the cytotoxic activity of compounds 1, 2, and 9 (Scheme 2) was investigated on several pairs of cell lines that differ in the expression of P-gp and the method by which they were obtained. K562/i-S9 cells are the result of the ABCB1 transfection into K562 cells, which increases P-gp expression, but should not seriously affect other signaling pathways that could lead to drug resistance. K562/i-S9_Dox cells were obtained from K562/i-S9 by selection with low concentrations of doxorubicin to increase P-gp expression. Subline HBL-100/Dox is a derivative of HBL-100 cells, obtained by long-term selection with increasing concentrations of doxorubicin, which led not only to an increase in P-gp expression, but also to a change in the signaling pathways in this subline. Cells of the K562/i-S9_Dox subline express the highest level of P-gp: 94.7% ± 2.3 (p < 0.0001 relative to K562, and p = 0.04 relative to K562/i-S9). In cells of the K562/i-S9 line, the expression of P-gp is 80% ± 8.2 (p < 0.0001 relative to K562). At 0.7% ± 0.5, P-gp is practically not expressed in K562 cells (Figure 1).
as §4, §2, §3

Compound | p70S6K (pThr389/412) fluorescence intensity (p70S6K (pThr389/412)) | IC50 (HEK293) | IC50 (RPMI8226) | IC50 (K562/i-S9_Dox)
CCCCC[C@@H]1OC2=C(C(=O)N(OC)/C2=C\n2cnnc2)C(n2cnnc2)[C@@]1(C)O (stereo partly drawn) [Compound 10] | 53.4 ± 4.0 rel. units | 41 ± 2.1 µM | 51000 ± 200 nM | –
C=C1C2=C(C(=O)N1OC)[C@@H](N(C)C)[C@@](C)(O)[C@H](CCCCC)O2 [Compound 2, (2S,3R,4R)-4-(dimethylamino)-3-hydroxy-6-methoxy-3-methyl-7-methylene-2-pentyl-3,4,6,7-tetrahydropyrano[2,3-c]pyrrol-5(2H)-one] | 56.9 ± 9.9 rel. units | 4.2 ± 0.3 µM | 1600 ± 500 nM | 2.4 ± 0.9 µM
C=C1C2=C(C(=O)N1OC)[C@@H](N(CCCC)CCCC)[C@@](C)(O)[C@H](CCCCC)O2 [Compound 5, (2S,3R,4R)-4-(dibutylamino)-3-hydroxy-6-methoxy-3-methyl-7-methylene-2-pentyl-3,4,6,7-tetrahydropyrano[2,3-c]pyrrol-5(2H)-one] | 70.6 ± 9.2 *↑ rel. units | 8.2 ± 0.9 µM | 6300 ± 300 nM | –
C=C1C2=C(C(=O)N1OC)[C@@H](N(CC)CCO)[C@@](C)(O)[C@H](CCCCC)O2 [Compound 9, (2S,3R,4R)-4-[ethyl(2-hydroxyethyl)amino]-3-hydroxy-6-methoxy-3-methyl-7-methylene-2-pentyl-3,4,6,7-tetrahydropyrano[2,3-c]pyrrol-5(2H)-one] | 38.8 ± 7.4 rel. units | 3.8 ± 0.4 µM | 1800 ± 200 nM | 3.3 ± 0.6 µM
C=C1C2=C(C(=O)N1OC)[C@@H](N1CCCC1)[C@@](C)(O)[C@H](CCCCC)O2 [Compound 1] | 51.7 ± 4.8 rel. units | 5.1 ± 0.7 µM | 1600 ± 300 nM | 3.1 ± 0.8 µM

Reference: paper PMC9030166, “Natural Phaeosphaeride A Derivatives Overcome Drug Resistance of Tumor Cells and Modulate Signaling Pathways” (Pharmaceuticals, 2022)
